Data taken from article PMC10671498, “Antiproliferative and Cytotoxic Properties of Propynoyl Betulin Derivatives against Human Ovarian Cancer Cells: In Vitro Studies” (International Journal of Molecular Sciences, 2023).
Like-named read-outs stand apart in the source and are kept apart here.

Experiments:
SK-OV-3 cells [1] = test: SRB cell proliferation assay, SK-OV-3; type: cell-based, human; conditions: for IC50: Homo sapiens; for concentration at which antiproliferative activity (decrease in the number of cells) was evident: SK-OV-3, SRB assay, 0.1–30 µM
Protocol: This study used ovarian cancer cell lines, which are part of the panel of cell lines used as part of the NCI-60 Human Cell Lines Screen program, characterized by overexpression of the c-erbB2/neu (HER2) receptor [62, 63]. The human ovarian cancer cell lines (SK-OV-3 and OVCAR-3) were purchased from the American Type Culture Collection (ATCC®, Manassas, Virginia, USA). SK-OV-3 cells (ATCC No. HTB-77™) were cultured in McCoy’s 5A medium containing D-glucose (3 g/L), L-glutamine (0.219 g/L), and sodium bicarbonate (2.2 g/L) supplemented with 10% fetal bovine serum, 10 mM HEPES (pH 7.3–7.5), 100 U/mL penicillin, and 100 μg/mL streptomycin (all from Sigma Aldrich).
(§1) Betulin 1 and its derivatives were dissolved in dimethyl sulfoxide (DMSO; Sigma Aldrich) as a 15 mM stock solution. Working solutions were prepared through the dilution of stock solutions with culture medium. The final DMSO concentration in culture media was adjusted to 0.2%. The effect of tested compounds on the proliferation of SK-OV-3 and OVCAR-3 cells was measured using the In Vitro Toxicology Assay Kit, Sulforhodamine B based (Sigma Aldrich). Cells were seeded in 96-well plates (Greiner Bio-One, Kremsmünster, Austria) at an initial density of 3 × 10^3 cells per well in 200 µL of culture medium. After 24 h of incubation, betulin 1 and its derivatives at a concentration range of 0.1 μM to 30 μM were added to the wells. Control cultures were treated with vehicle alone (0.2% DMSO). The incubation periods for cells with test compounds were 1 day, 3 days, and 5 days. After appropriate incubation periods, culture media were removed, and cells were fixed in 10% trichloroacetic acid solution for 60 min at 4 °C. After fixation, the TCA solution was removed, and the plates were washed three times with deionized water (300 μL/well) and dried. At the next step, cells were stained with 0.4% sulforhodamine B for 30 min. The excess dye was removed by washing three times with 1% (vol/vol) acetic acid. The protein-bound dye was dissolved in 200 μL 10 mM Tris base solution. Absorbance was measured at 570 nm and 690 nm (reference wavelength) using the MRX Revelation plate reader (Dynex Technologies, Chantilly, VA, USA).
(§2) GraphPad Prism 10.0.2 (GraphPad Software Inc., San Diego, CA, USA) software was used for calculations and the statistical analysis of the IC50 values (Table 1). IC50 was determined by using the “nonlinear regression” mode, and the “log(inhibitor) vs. normalised response—Variable slope” equation was chosen in GraphPad Prism software for calculations. The obtained data were normalized to run from 100% down to 0%, and logarithms of concentration were used. Graphs (Figure 2, Figure 3, Figure 4, Figure 5 and Figure 8, and Supplementary Figure S1) were also prepared using this software. In the case of the lack of normal distribution or homogeneity of variances, the remaining results were analyzed using a non-parametric Kruskal–Wallis test with multiple comparisons. Post hoc analysis was performed with the non-parametric equivalent of Tukey’s test. A p value of <0.05 was considered statistically significant. Otherwise, a one-way ANOVA followed by a Tukey’s post hoc test was applied. t-tests was used to perform pairwise comparisons between group means. Analysis was performed using Statistica 13.1 software (StatSoft, Tulsa, OK, USA).

OVCAR-3 cells [2] = test: SRB cell proliferation assay, OVCAR-3; type: cell-based, human; conditions: for IC50: Homo sapiens; for concentration at which antiproliferative activity (decrease in the number of cells) was evident: OVCAR-3, SRB assay, 0.1–30 µM
Protocol: OVCAR-3 cells (ATCC No. HTB-161™) were cultured in RPMI-1640 medium containing HEPES buffer (2.383 g/L), sodium bicarbonate (1.5 g/L), sodium pyruvate (0.11 g/L) supplemented with 20% fetal bovine serum, 10 µg/mL bovine insulin, 100 U/mL penicillin, and 100 μg/mL streptomycin (all from Sigma Aldrich).
as §1, §2

[3] = tested on: 18Co normal myofibroblasts; test: SRB cell proliferation assay, 18Co normal myofibroblasts; type: cell-based
Protocol: Next, 18Co cells (ATCC No. CRL-1459™) were cultured in MEM medium containing HEPES buffer, 10% fetal bovine serum, 100 U/mL penicillin, and 100 μg/mL streptomycin (all from Sigma Aldrich).
as §1, §2

SK-OV-3 cells [4] = test: DNA fragmentation assay (Cell Death Detection ELISA, cytoplasmic fraction), SK-OV-3; type: cell-based, human; conditions: SK-OV-3, 24 h, 3, 10, 30 µM
Protocol: (§3) Fragmentation of genomic DNA was determined by means of the Cell Death Detection ELISAPLUS kit (Roche, Basel, Switzerland). This method rests on the immunoenzymatic detection of DNA–histone complexes in the cytoplasmic cell fraction or cell culture supernatants. Cells were plated and cultured in 96-well plates (Greiner Bio-One) at the initial density of 5 × 10^3 cells per well in 100 µL of culture medium. Cells were allowed to attach and grow for 1 day prior to the addition of test reagents. Then, the media were replaced with the working solutions (3 µM, 10 µM, 30 µM), and cells were exposed to compounds 2–6 for 24 h. In some cases, 5 µM cyclosporin A (CsA, an inhibitor of the mitochondrial permeability transition) was added to the cells 30 min before treatment with the betulin derivative. Subsequently, cells were incubated concomitantly with both compounds. After a 24 h incubation period, plates were centrifuged (200× g; 10 min), media were removed, and cells were lysed for 30 min at room temperature. At the next step, the lysates were again spun (200× g; 10 min), and 20 µL of supernatants (cytoplasmic fractions) was moved to the new 96-well streptavidin-coated plate. In one experiment, the presence of mono- and oligonucleosomes was determined in 20 µL samples of centrifuged culture supernatants (media) to detect the permeability of plasma membrane (considered as an indicator of cell necrosis). Then, the sandwich ELISA assay was fulfilled according to the manufacturer’s protocol. Absorbance was measured at 405 nm and 490 nm (reference wavelength), and the enrichment factor of the cytoplasmic (or supernatant) fraction in mono- and oligonucleosomes was calculated according to the formula: EF = absorbance of sample cells/absorbance of control cells.
(§4) A high EF index in the cytoplasmic fraction (resulting from DNA fragmentation while maintaining the tightness of cell membranes) is a typical indicator of the relatively early stage of apoptosis.

SK-OV-3 cells [5] = test: TMRM analysis of mitochondrial membrane potential; type: cell-based, human; conditions: SK-OV-3, 3 h, 30 µM
Protocol: Tetramethylrhodamine methyl ester (Sigma Aldrich) was used for the assessment of changes in the transmembrane potential of mitochondria. TMRM is a fluorescent cationic dye accumulating in mitochondria in a potential-dependent manner. Cell cultures were prepared as described above for acridine orange staining. Cells were exposed to test solutions for 3 h, and then TMRM was added (final concentration 100 nM) followed by incubation for 30 min in the CO2 incubator. Prior to observation, the plates were centrifuged (250× g, 5 min), and the medium was changed to PBS. The cells were analyzed under the Nikon Eclipse TS-100F microscope and photographed.

[6] = tested on: human melanoma cell line C32; set-up: method as in PMID 28100848; conditions: C32, 3 μM; cited from earlier work
[7] = tested on: human melanoma cell line A2058; set-up: method as in PMID 28100848; conditions: A2058, 3 μM; cited from earlier work
OVCAR-3 cells [8] = test: LDH release assay, OVCAR-3; type: cell-based, human; conditions: OVCAR-3, 24 h
Protocol: (§5) In order to evaluate the cytotoxic effect, the release of LDH into the culture medium using the In Vitro Toxicology Assay Kit, Lactic Dehydrogenase Based (TOX7; Sigma Aldrich) was assessed. SK-OV-3 and OVCAR-3 cells were plated and cultured in 96-well plates (Greiner Bio-One) at the initial density of 5 × 10^3 cells per well in 100 µL of culture medium. The density of the cells was determined in the same manner as in the SRB assay. After 24 h, the media were replaced with the working solutions, which contained appropriate test compounds at concentrations of 3 μM, 10 μM, 30 μM, and control medium (0.2% DMSO). Cells were exposed to the test substances for 24 h. The background control comprised wells without cells with only control medium. To determine the maximal LDH release (high control), half of the control cultures were treated with lysis buffer. Wells with untreated cells were used as the low control of the assay. LDH activity in media was assessed according to the manufacturer’s protocol. The absorbance was measured at wavelengths of 490 nm and 690 nm (background), and the percentage of released enzyme was calculated for cells growing in the presence of compounds according to the formula:Cytotoxicity [%] = [(AT − AL)/(AH − AL)] × 100 where AT is the absorbance of treated wells; AL is low control; and AH is high control (maximal LDH release).
(§6) Cytotoxicity was expressed as a percentage of the released LDH calculated according to the difference between the absorbance of the treated and low control wells divided by the difference between the absorbance of the high control and low control wells.

OVCAR-3 cells [9] = test: DNA fragmentation assay (Cell Death Detection ELISA, cytoplasmic fraction), OVCAR-3; type: cell-based, human; conditions: OVCAR-3, 24 h, 3, 10, 30 µM, among the betulin derivatives
Protocol: as §3, §4

SK-OV-3 cells [10] = test: LDH release assay, SK-OV-3; type: cell-based, human; conditions: SK-OV-3, 24 h, all concentrations (3, 10, 30 μM)
Protocol: as §5, §6

[11] = 72 h, SK-OV-3, 3 days treatment, SRB assay, read-out: IC50
[12] = 120 h, SK-OV-3, 5 days treatment, SRB assay, read-out: IC50
[13] = 72 h, OVCAR-3, 3 days treatment, SRB assay, read-out: IC50
[14] = 120 h, OVCAR-3, 5 days treatment, SRB assay, read-out: IC50
[15] = 18Co, 3 days treatment, Neg: negative in the concentration used
[16] = 18Co, 5 days treatment, Neg: negative in the concentration used

Structure (SMILES)	IC50 (SK-OV-3 cells [1]; [11])	IC50 (SK-OV-3 cells [1]; [12])	concentration at which antiproliferative activity (decrease in the number of cells) was evident (SK-OV-3 cells [1])	IC50 (OVCAR-3 cells [2]; [13])	IC50 (OVCAR-3 cells [2]; [14])	concentration at which antiproliferative activity (decrease in the number of cells) was evident (OVCAR-3 cells [2])	IC50 [3, 15]	IC50 [3, 16]	IC50 (SK-OV-3 cells [1]; SK-OV-3, 72 h)	IC50 (SK-OV-3 cells [1]; SK-OV-3, 120 h)	IC50 (OVCAR-3 cells [2]; OVCAR-3, 72 h)	IC50 (OVCAR-3 cells [2]; OVCAR-3, 120 h)	further results
C#CC(=O)OC[C@]12CC[C@@H](C(=C)C)[C@@H]1[C@H]1CC[C@@H]3[C@@]4(C)CC[C@H](O)C(C)(C)[C@@H]4CC[C@@]3(C)[C@]1(C)CC2 [Compound 2, 28-O-propynoylbetulin]	180 nM	200 nM	≥ 0.3 µM	160 nM	190 nM	≥ 0.3 µM	Neg	Neg	–	–	–	–	DNA fragmentation (enrichment factor, internucleosomal DNA fragments) (SK-OV-3 cells [4]): moderate increases; mitochondrial membrane potential (TMRM fluorescence) (SK-OV-3 cells [5]): reduced the mitochondrial membrane potential; inhibition of proliferation [6]: strong inhibition; inhibition of proliferation [7]: strong inhibition
C#CC(=O)O[C@H]1CC[C@@]2(C)C(CC[C@]3(C)C2CCC2C4[C@H](C(=C)C)CC[C@]4(COP(=O)(OCC)OCC)CC[C@]23C)C1(C)C (stereo partly shown) [Compound 4, 28-O-diethoxyphosphoryl-3-O-propynoylbetulin]	–	–	–	–	–	> 3 µM	–	–	1080 nM	1330 nM	1880 nM	1450 nM	IC50 ([3]; 72 h): 9470 nM; IC50 ([3]; 120 h): 23700 nM; cytotoxicity (released LDH), loss of cell membrane integrity (OVCAR-3 cells [8]; 10 μM and 30 μM): loss of cell membrane integrity was also confirmed; DNA fragmentation (enrichment factor) (OVCAR-3 cells [9]): greatest effect
C#CC(=O)OC[C@]12CC[C@@H](C(=C)COP(=O)(OCC)OCC)C1C1CCC3[C@@]4(C)CC[C@H](O)C(C)(C)C4CC[C@@]3(C)[C@]1(C)CC2 (stereo partly shown) [Compound 5, 30-diethoxyphosphoryloxy-28-O-propynoylbetulin]	–	–	1 µM	–	–	1 µM	Neg	Neg	280 nM	290 nM	540 nM	600 nM	cytotoxicity (released LDH) (SK-OV-3 cells [10]): strong cytotoxic effect; cytotoxicity (released LDH) (OVCAR-3 cells [8]; all concentrations (3, 10, 30 μM)): significant cytotoxic activity
CC(=O)O[C@H]1C(=O)[C@@]2(C)[C@H]([C@H](OC(=O)c3ccccc3)[C@]3(O)C[C@H](OC(=O)[C@H](O)[C@@H](NC(=O)c4ccccc4)c4ccccc4)C(C)=C1C3(C)C)[C@]1(OC(C)=O)CO[C@@H]1C[C@@H]2O [PTX, Paclitaxel, reference compound]	4.39 nM	5.65 nM	–	4.49 nM	2.97 nM	–	Neg	–	–	–	–	–	IC50 ([3]; 120 h, 18Co, 5 days treatment, Neg: negative in the concentration used, read-out: IC50): 14.8 nM
